Reference: PMC4102551, “Screening and Characterisation of Antimicrobial Properties of Semisynthetic Betulin Derivatives” (PLoS ONE, 2014)
“And” between values parts separate entries of the source, which are not always exact repeats. Equal values may be shown once.

Columns and labels:
E. faecalis ATCC 29212 = experiment: Broth microdilution assay, E. faecalis; type: cell-based, Enterococcus faecalis; details: 50 µM, 24 h, inhibition of growth, mean ± SD
Description: (§1) Clinically used antimicrobial agents were selected based on international guidelines for antimicrobial testing and were utilised as reference compounds in the antimicrobial assays. The compounds were purchased from Sigma, Fluka and ICN Biomedicals. Stock solutions of the reference compounds were prepared either in double distilled sterile MilliQ water or in DMSO. Water solutions were sterilised through a 0.22 µm filter (VWR International). […] During the primary screening, these reference compounds were used as positive controls at the determined MIC on every plate.
(§2) Gram-negative strains Escherichia coli (ATCC 25922), Enterobacter aerogenes (ATCC 13048) and Pseudomonas aeruginosa (ATCC 27853), Gram-positive strains Staphylococcus aureus (ATCC 25923) and Enterococcus faecalis (ATCC 29212), and fungal strain Candida albicans (ATCC 90028) were obtained from Microbiologics Inc., and used for the antimicrobial screening. Strains were selected according to the guidelines set for clinical laboratories by Clinical and Laboratory Standards Institute [CLSI, formerly National Committee on Clinical Laboratory Standards [22]] and the European Committee on Antimicrobial Susceptibility Testing (EUCAST). Bacterial strains were grown on Mueller Hinton II Agar (MHA) (BBL, BD) and Mueller Hinton II broth (MHB) (BBL, BD), whereas Candida was initiated on Sabouraud Dextrose Agar (SDA) (Difco, BD) plates. Media were prepared into MilliQ water according to manufacturer’s instruction and autoclaved at 121°C for 15 min. Bacteria were plated on MHA plates and incubated at 37°C for 16–18 h. Bacterial suspension for the assays was prepared by subculturing the bacteria into MHB and by incubating at 37°C for 16–20 h at 110 rpm prior to the assay. Candida strain was grown on SDA plates at 27°C for 16–18 h and suspended into sterile 0.9% saline for the assay.
(§3) Antimicrobial screening assays were performed by broth microdilution method following the guidelines of CLSI and EUCAST. Bacterial suspensions were prepared as mentioned earlier and diluted with MHB to obtain a final inoculum of 5×10^5 colony-forming units (cfu)/mL in the assay for all the bacteria (based on OD620 values previously calibrated against plate counts). Candida suspension was prepared into sterile 0.9% saline solution as stated earlier. […] Assays were carried out in clear 96-well microtitre plates and initiated by dispensing an equal volume of microbial suspension and sample solution diluted into the assay medium into the wells. The plates were incubated for 24 h at 37°C (for Candida the incubation was at 35°C for 48 h) with agitation. Absorbance was measured at 620 nm with Victor plate reader (Wallac 1420, Perkin Elmer) at 0, 4 and 24 h with the bacteria, and at 0, 24 and 48 h with Candida. The antimicrobial activity of the samples was calculated from the absorbance values by comparing to the controls, and expressed as a percentage inhibition of growth. All the betulin derivatives were first assayed at the single concentration of 50 µM (two separate experiments, each with three replicates). […] The MIC90 value was expressed as the lowest concentration of compound that inhibited the microbial growth by >90%. The MIC90 results are means of three replicates from two separate experiments.

E. coli ATCC 25922 = experiment: Broth microdilution assay, E. coli; type: cell-based, Escherichia coli; details: 50 µM, 24 h, inhibition of growth, mean ± SD
Description: as §1, §2, §3

P. aeruginosa ATCC 27853 = experiment: Broth microdilution assay, P. aeruginosa; type: cell-based, Pseudomonas aeruginosa; details: 50 µM, 24 h, inhibition of growth, mean ± SD
Description: as §1, §2, §3

C. albicans ATCC 90028 = experiment: Broth microdilution assay, C. albicans; type: cell-based, Candida albicans; details: 50 µM, 48 h at 35°C, inhibition of growth, mean ± SD
Description: as §1, §2, §3

S. aureus ATCC 25923 = experiment: Broth microdilution assay, S. aureus; type: cell-based, Staphylococcus aureus; details: 50 µM, 24 h, inhibition of growth, mean ± SD
Description: as §1, §2, §3

E. aerogenes ATCC 13048 = experiment: Broth microdilution assay, E. aerogenes; type: cell-based, Enterobacter aerogenes; details: 50 µM, 24 h, inhibition of growth, mean ± SD
Description: as §1, §2, §3

Huh-7 cells = experiment: in vitro; type: cell-based, human; details: 50 µM, 24 h exposure, ATP content, 5% FBS
Description: Huh-7 cells (derived from human hepatocellular carcinoma) were obtained as a gift from Prof. Ralf Bartenschlager (University of Heidelberg, Germany) and used for assessing the cytotoxicity against mammalian cells. HL cells (a heteroploid cell line used for propagating respiratory viruses) were used as a host cell line in the host-pathogen co-culture assay. […] Both cell lines were cultured at 37°C, 5% CO2 and 95% humidity.
The effect of the betulin derivatives on metabolic activity of Huh-7 cells was evaluated by measuring the intracellular ATP content of the cells after 24 h exposure to the compounds. In brief, cells were seeded at 20000 cells/well on white-walled microplates (PerkinElmer) and incubated at 37°C, 5% CO2 and 95% humidity. After culturing the cells overnight, the medium was replaced with the assay media (5% FBS) containing the sample and the cells were incubated for 24 h. Polymyxin B sulphate (15000 IU/mL) was used as a positive control. Following the incubation period, Promega’s CellTiter-Glo Cell Viability Assay was used to determine the intracellular ATP levels according to the manufacturer’s instructions. Cells were washed with 100 µL 6.7 mM PBS, pH 7.4 and 50 µL of fresh assay media and 50 µL of the CellTiter-Glo reagent were added into the wells. After 2 min shaking, followed by 10 min incubation at RT, luminometric signal was measured using Varioskan Flash plate reader (Thermo Fisher Scientific).

Compound | Inhibitory effect (%) E. faecalis ATCC 29212 (E. faecalis ATCC 29212) | Inhibitory effect (%) E. coli ATCC 25922 (E. coli ATCC 25922) [%] | Inhibitory effect (%) P. aeruginosa ATCC 27853 (P. aeruginosa ATCC 27853) [%] | Inhibitory effect (%) C. albicans ATCC 90028 (C. albicans ATCC 90028) [%] | Inhibitory effect (%) S. aureus ATCC 25923 (S. aureus ATCC 25923) [%] | Inhibitory effect (%) E. aerogenes ATCC 13048 (E. aerogenes ATCC 13048) [%] | Cytotoxicity (%) Huh-7 cells (Huh-7 cells) [%]
C=C(C)[C@@H]1CC[C@]2(C#N)CC[C@]3(C)[C@H](CC[C@@H]4[C@@]5(C)CC[C@H](OC(C)=O)C(C)(C)[C@@H]5CC[C@]43C)[C@@H]12 [Compound 33] | 49% and 49.2±2.2% | -4.6±3.3 | 3.6±3.9 | -51.2±39.1 | 20.5±52.1 | 11.4±4.2 | 21.6±17.0
COc1cccc(-n2c(=O)n3n(c2=O)C2(C(C)C)CCC4(COC(C)=O)CCC5(C)C(=C42)C3CC2C3(C)CCC(OC(C)=O)C(C)(C)C3CCC25C)c1 (stereo not shown) [Compound 34] | 68.4±3.0% | 1.7±4.2 | 0.6±2.5 | -1.1±3.5 | 3.1±2.0 | 13.8±4.3 | 8.5±2.0
CC(=O)OCC12CCC3(C(C)C)C1=C1C(CC4C5(C)CCC(OC(C)=O)C(C)(C)C5CCC4(C)C1(C)CC2)n1c(=O)n(-c2ccc4c(c2)CCC4)c(=O)n13 (stereo not shown) [Compound 36] | 62.0±1.9% | 2.6±2.1 | 5.8±0.7 | 10.7±4.8 | 6.1±1.7 | 14.5±1.3 | 7.9±2.2
CC(=O)OCC12CCC3(C(C)C)C1=C1C(CC4C5(C)CCC(OC(C)=O)C(C)(C)C5CCC4(C)C1(C)CC2)n1c(=O)n(-c2ccc(F)cc2)c(=O)n13 (stereo not shown) [Compound 37] | 48.2±7.7% | 5.0±8.8 | 4.6±0.7 | 11.7±9.0 | 6.5±0.9 | 17.7±2.2 | 0.8±3.4
CC(=O)OCC12CCC3(C(C)C)C1=C1C(CC4C5(C)CCC(OC(C)=O)C(C)(C)C5CCC4(C)C1(C)CC2)n1c(=O)n(-c2cccc(Cl)c2)c(=O)n13 (stereo not shown) [Compound 39] | 69.1±4.9% | 4.4±2.7 | 2.6±1.1 | 4.8±13.6 | 5.7±0.8 | 19.0±1.9 | 1.5±2.7
CC(=O)OCC12CCC3(C(C)C)C1=C1C(CC4C5(C)CCC(OC(C)=O)C(C)(C)C5CCC4(C)C1(C)CC2)n1c(=O)n(Cc2ccccc2)c(=O)n13 (stereo not shown) [Compound 40] | 66.0±1.5% | -0.8±2.3 | 1.7±0.6 | 4.4±10.5 | 4.1±1.1 | 15.1±3.4 | 2.3±2.2
CC(=O)OCC12CCC3(C(C)C)C1=C1C(CC4C5(C)CCC(OC(C)=O)C(C)(C)C5CCC4(C)C1(C)CC2)n1c(=O)n(-c2ccccc2)c(=O)n13 (stereo not shown) [Compound 41] | 52.4±7.2% | 7.1±1.0 | 1.3±0.4 | 15.0±14.3 | 12.7±1.6 | 18.6±5.6 | 1.3±4.4
CCCCn1c(=O)n2n(c1=O)C1(C(C)C)CCC3(COC(C)=O)CCC4(C)C(=C31)C2CC1C2(C)CCC(OC(C)=O)C(C)(C)C2CCC14C (stereo not shown) [Compound 42] | 67.5±3.7% | 1.7±5.2 | 1.0±0.4 | -12.0±11.8 | 1.5±1.0 | 10.6±3.5 | -8.3±1.3
CC(C)C12CCC3(CO)CCC4(C)C(=C31)C(CC1C3(C)CCC(O)C(C)(C)C3CCC14C)n1c(=O)n(-c3ccccc3)c(=O)n12 (stereo not shown) [Compound 44] | 57.1±7.1% | -1.0±0.3 | 3.3±1.1 | -25.4±8.0 | 5.7±2.2 | 11.7±1.1 | 2.8±5.3
CCC(=O)OCC12CCC3(C(C)C)C1=C1C(CC4C5(C)CCC(OC(=O)CC)C(C)(C)C5CCC4(C)C1(C)CC2)n1c(=O)n(C)c(=O)n13 (stereo not shown) [Compound 45] | 41.6±2.8% | -4.3±7.0 | 3.7±1.2 | -30.7±19.4 | 0.7±3.8 | 10.8±6.9 | 11.1±5.1
CCCC(=O)OCC12CCC3(C(C)C)C1=C1C(CC4C5(C)CCC(OC(=O)CCC)C(C)(C)C5CCC4(C)C1(C)CC2)n1c(=O)n(C)c(=O)n13 (stereo not shown) [Compound 46] | 44.8±2.8% | -2.1±6.4 | 5.2±0.7 | -56.1±14.6 | 2.5±3.1 | 7.4±5.9 | 6.4±2.9
CC(C)C(=O)OCC12CCC3(C(C)C)C1=C1C(CC4C5(C)CCC(OC(=O)C(C)C)C(C)(C)C5CCC4(C)C1(C)CC2)n1c(=O)n(C)c(=O)n13 (stereo not shown) [Compound 47] | 47.8±1.3% | -3.8±4.2 | 1.4±0.8 | 12.0±12.7 | 2.9±1.0 | 9.6±1.7 | -4.9±2.2
CC(C)C12CCC3(COC(=O)C4CCCCC4)CCC4(C)C(=C31)C(CC1C3(C)CCC(OC(=O)C5CCCCC5)C(C)(C)C3CCC14C)n1c(=O)n(C)c(=O)n12 (stereo not shown) [Compound 48] | 56.3±1.8% | -5.5±1.9 | 7.1±1.7 | -39.6±25.9 | 5.0±4.2 | 12.1±2.2 | -10.8±1.9
